“Also recorded” adds a separate entry of the source. Read-outs that look alike come from different tables or passages of the source.
Assays:
[1] = system: occluding thrombosis of the femoral artery; assay: Prevention of arterial thrombosis in dogs; assay type: in vivo, dog
Experimental: In animals, 1-(4-isopropylthiophenyl)-2-n-octylaminopropanol reduces thromboformation in arteries and veins.
Thrombosis was induced in the femoral
artery of anesthetized dogs by a 30 min perfusions, in a
catheterized area of the vessel, of a solution of pronase.
Drugs administrations were made at 24 h intervals, for 5 days
the last dosage being given 30 min before anesthesia.

[2] = system: peripheral vasodilatatory activity; assay: Vasodilatory effect after intraarterial injection in dog; assay type: in vivo
Experimental: (1) intraarterial injection in dog (5 animals) 10, 20 and 30 μg/kg.
(2) maximum vasodilatory effect in mm of Hg.
(3) and (4) expressed in seconds.

[3] = Blood viscosity and plasma fibrinogen in geriatric patients (pilot studies); assay type: in vivo, human; conditions: long-term treatment
cholesterol biosynthesis = assay: Inhibition of cholesterol biosynthesis in vitro (rat liver); assay type: cell-based; conditions: for inhibition at 100 µM / inhibition at 10 µM: Rattus norvegicus, rat liver, mean; for inhibition at 100 µM: 10^-4 M; for inhibition at 10 µM: 10^-5 M; for inhibition of cholesterol biosynthesis (in words): in vitro
Source text: |Inhibition of cholesterol biosynthesis in vitro (rat liver). In- |hibitory effect of suloctidil and clofibrate on the incorpora- |tion of 1-^14 [NT] and 2-^14 C-mevalonate (MVA). |are mean values and range, expressed in % of inhibition. Unless |otherwise stated, n = 3.

Bleeding time in man = assay type: in vivo, human; conditions: repeated administration
Experimental: (§1) After a single oral intake of 200 mg the effect lasts for at least 6 h. Repeated administration of 1-(4-isopropylthiophenyl)-2-n-octylaminopropanol seems to optimalize its anti-platelet activity. […] Moreover, investigations on its mode of action indicate that the mechanism involved are quantitatively and qualitatively different from these of the other known anti-platelet agents.

[4] = system: catecholamines and methylxanthine induced lipolysis; assay: Antilipolytic activity in vitro in rat epididymal fat; assay type: cell-based
lipoproteinlipases = assay: Inhibitory effect on lipoproteinlipases; assay type: biochemical
[5] = system: experimental type II hyperlipidemia; assay: Experimental type II hyperlipidemia in monkeys; assay type: in vivo, monkey
[6] = system: vascular contractile cell; assay: Vascular antispasmodic activity: inhibition of induced vasoconstrictions in vitro and in vivo
[7] = system: platelets emboli triggered by ADP; assay: Platelets emboli triggered by ADP in mice or rats; assay type: in vivo
Source text: Since platelet aggregation is considered to be of paramount importance in thrombus formation, this anti-platelet activity of 1-(4-isopropylthiophenyl)-2-n-octylaminopropanol (suloctidil) is likely to explain its anti-thrombotic properties.

platelet functions = assay: Platelet antiaggregating properties in vitro and in vivo
[8] = system: vasoconstrictions induced by norepinephrine and angiotensine in the femoral circulation; assay: Inhibition of vasoconstrictions in the femoral circulation of dogs; parameters: species or system dog; conditions: in vivo, FIG. 1: i.a. 10 μg/kg/min, listed as suloctidil
Source text: The vasoconstrictions are induced by i.a. norepinephrine (n=10) or angiotensine (n=8) during solvent (C) or drug (T) infusion.
Vertical bars are standard errors of the means and * or *** indicate statistically significant differences from the corresponding control values at the thresholds α=0.05 and 0.001 respectively.

[9] = system: peripheral and cerebral circulations; assay: Blood flow in peripheral and cerebral circulations after i.v. or oral administration; assay type: in vivo; conditions: mice or dogs
[10] = system: spontaneously hypertensive rat; assay: Antihypertensive activity (spontaneously hypertensive rat); assay type: in vivo; conditions: 15 mg/kg per os
Experimental: (3) spontaneously hypertensive rat; 15 mg/kg per os;
± reduction of systolic pressure up to 10 mm of Hg
+ reduction of systolic pressure of 10 to 20 mm Hg
++ reduction of systolic pressure of at least 20 mm of Hg

DL50 mouse p.o. = conditions: in vivo, po, limits of reliability (p : 0.95) in brackets
Source text: (1) the limits of reliability (p : 0.95) are given in brackets.

Hist. = assay: Antispasmodic activity, Hist.
[11] = Prothrombine levels in patients under oral anti-coagulants therapy; assay type: in vivo, human; conditions: 900 mg daily with long-term oral anti-coagulants
Experimental: as §1

Ac.chol. = assay: Antispasmodic activity, Ac.chol.
BaCl2 = assay: Antispasmodic activity, BaCl2
[12] = system: ADP, L-epinephrine, collagen and Thrombofax induced aggregation; assay: Ex-vivo platelet aggregation after oral administration to healthy volunteers; parameters: species or system human
Experimental: as §1

guinea pig atria's = assay: Protective activity against anoxia (guinea pig atria); parameters: key: scale: + = 10 to 20% increase in survival time; conditions: increase in survival time
Source text: (5) guinea pig atria's;
+ = increase in survival time of 10 to 20%

[13] = system: thrombosis of the hepatic veins; assay: Prevention of deep veins thrombosis in rats; assay type: in vivo, rat; conditions: for n rats with score 2: control 1; for n rats with score 3: control 2; for n rats with score 1: control 12, * α = 0.05; for n rats with score 0: control 13, ** α = 0.01; for thrombosis of the hepatic veins (in words): rats fed hyperlipidemic diet 3 months, endotoxin
Experimental: (see table VI given below).
Thrombosis in the hepatic veins were in-
duced in rats fed an hyperlipidemic diet for 3 months by i.v.
injection of endotoxin (lipopolysaccharide B from Salmonella
Sulcoctidil was administered into the diet. The importance of the
thrombosis assessed by scoring the subsequent red
hepatic infarcts according to their number and surface.

[14] = AA, read-out: Inhibition of incorporation of 1-^14 C-acetate (AA)
[15] = MVA, read-out: Inhibition of incorporation of 2-^14 C-mevalonate (MVA)

Question: Which results are given for `CCCCCCCCNC(C)C(O)c1ccc(SC(C)C)cc1` (stereo not drawn) [No 2, 1-(4-isopropylthiophenyl)-2-n-octylaminopropanol]?
Answer: n dogs with occluding thrombosis ([1]; 5 × 5 mg/kg i.m., n = 16, controls 10 of 16, * α = 0.05): 3; incidence of occluding thrombosis of the femoral artery (in words) ([1]; suloctidil 5 times 5 mg/kg i.m., acetylsalicylic acid 5 times 100 mg/kg p.o.): significantly lower; peripheral vasodilatatory activity compared with papaverine [2]: greater degree of activity than papaverine; Amplitude (maximum vasodilatory effect) ([2]; 10 μg/kg): 42 mm of Hg; Duration of effect ([2]; 10 μg/kg): 226 s; Half-life (of vasodilatory effect) ([2]; 10 μg/kg): 1.57 min; Amplitude (maximum vasodilatory effect) ([2]; 20 μg/kg): 59 mm of Hg; Duration of effect ([2]; 20 μg/kg): 299 s; Half-life (of vasodilatory effect) ([2]; 20 μg/kg): 2.32 min; Amplitude (maximum vasodilatory effect) ([2]; 30 μg/kg): 67 mm of Hg; Duration of effect ([2]; 30 μg/kg): 390 s; Half-life (of vasodilatory effect) ([2]; 30 μg/kg): 2.63 min; plasma fibrinogen levels [3]: parallel reduction of the plasma fibrinogen levels; reduction of blood hyperviscosity ([3]; therapeutic dosage regimen): about 10%; inhibition at 100 µM (cholesterol biosynthesis; [14]): 49.4%; inhibition at 10 µM (cholesterol biosynthesis; [14]): 27.5%; inhibition at 100 µM (cholesterol biosynthesis; [15]): 25.9%; inhibition at 10 µM (cholesterol biosynthesis; [15]): 9.9%; inhibition of cholesterol biosynthesis (in words) (cholesterol biosynthesis): strong inhibitor of cholesterol biosynthesis; also recorded: more specific than that of standard compounds like clofibrate; inhibition of cholesterol biosynthesis (in words) (cholesterol biosynthesis; listed as suloctidil): markedly inhibits the biosynthesis of cholesterol; bleeding time (Bleeding time in man): does not prolong bleeding time in man; antilipolytic activity [4]: potent antilipolytic activity; direct inhibitory effect on lipoproteinlipases (lipoproteinlipases): direct inhibitory effect on the activity of different lipoproteinlipases; hypocholesterolemic and normolipoproteinemic effects [5]: hypocholesterolemic and "normolipoproteinemic" effects observed in vivo; vascular antispasmodic activity and vasodilating action [6]: potent vascular antispasmodic activity and vasodilating action; inhibition of vasoconstrictions ([6]; in vitro and in vivo, calcium, norepinephrine, 5-hydroxytryptamine and angiotensine): inhibits, in vitro and in vivo, vasocontrictions induced by various agents like calcium, norepinephrine, 5-hydroxytryptamine and angiotensine; activity compared with acetyl salicyclic acid ([7]; at the same dose): as active as acetyl salicyclic acid; formation of platelets emboli triggered by ADP ([7]; oral, mice or rats): blocked or decreased the formation of platelets emboli triggered by ADP; platelet antiaggregating properties (platelet functions): potent platelet antiaggregating properties; platelet antiaggregating properties (platelet functions; listed as suloctidil): platelet anti-aggregating properties; inhibition of vasoconstrictions in the femoral circulation [8]: potent inhibitor of vasoconstrictions; also recorded: more active than standard agents like papaverine and cinnarizine; increase in blood flow in peripheral and cerebral circulations [9]: increase in blood flow in both peripheral and cerebral circulations; Anti-hypertensive activity [10]: 0; LD50 (DL50 mouse p.o.): 3700 mg/kg; Antispasmodic activity CE 100, Hist. (Hist.): 100 μ g γ 60 ml; prothrombine levels [11]: does not markedly decrease prothrombine levels; Antispasmodic activity CE 100, Ac.chol. (Ac.chol.): 100 μ g γ 60 ml; Antispasmodic activity CE 100, BaCl2 (BaCl2): 100 μ g γ 60 ml; inhibition of induced platelet aggregation ([12]; ex-vivo, single oral administration, 200 mg or more, healthy volunteers): strongly inhibits ADP, L-epinephrine, collagen and Thrombofax induced aggregation; duration of anti-aggregating effect ([12]; single oral intake of 200 mg): at least 6 h; Protective activity against anoxia (guinea pig atria's): 0; n rats with score 2 ([13]; 10 mg/kg/day in diet): 0; n rats with score 3 ([13]; 10 mg/kg/day in diet): 0; n rats with score 1 ([13]; 10 mg/kg/day in diet): 4; n rats with score 0 ([13]; 10 mg/kg/day in diet): 25; n rats with score 2 ([13]; 25 mg/kg/day in diet): 0; n rats with score 3 ([13]; 25 mg/kg/day in diet): 0; n rats with score 1 ([13]; 25 mg/kg/day in diet): 5; n rats with score 0 ([13]; 25 mg/kg/day in diet): 23; thrombosis of the hepatic veins (in words) [13]: protection is still conferred by a 10 mg/kg oral dose; thrombosis of the hepatic veins (in words) ([13]; listed as suloctidil): markedly less frequent and less developped
